Converted amounts (≈) assume the structure as drawn. Like-named read-outs stand apart in the source and are kept apart here.
What was measured:
[1] = tested on: Klebsiella pneumoniae X68; assay: standard agar-dilution MIC assay; assay type: cell-based; details: Klebsiella pneumoniae, X68
Procedure: (§1) The MIC's in Table III were determined by standard agar-dilution assays. The MIC's in Table IV were obtained using conventional brothdilution microtiter tests.

[2] = tested on: Pseudomonas aeruginosa X239; assay: standard agar-dilution MIC assay; assay type: cell-based; details: Pseudomonas aeruginosa, X239
Procedure: as §1

[3] = tested on: Haemophilus influenzae 76; assay: standard agar-dilution MIC assay; assay type: cell-based; details: Haemophilus influenzae, 76
Procedure: as §1

[4] = tested on: Haemophilus influenzae C.L.; assay: standard agar-dilution MIC assay; assay type: cell-based; details: Haemophilus influenzae
Procedure: as §1

[5] = tested on: Staphylococcus epidermidis EP12; assay: standard agar-dilution MIC assay; assay type: cell-based
Procedure: as §1

[6] = tested on: Staphylococcus aureus V41; assay: standard agar-dilution MIC assay; assay type: cell-based; details: Staphylococcus aureus, V41
Procedure: as §1

[7] = tested on: Escherichia coli EC14; assay: standard agar-dilution MIC assay; assay type: cell-based
Procedure: as §1

[8] = tested on: Streptococcus Group D 9960; assay: standard agar-dilution MIC assay; assay type: cell-based; details: GROUPD9960, read-out: MIC
Procedure: as §1

[9] = tested on: Staphylococcus aureus X400; assay: standard agar-dilution MIC assay; assay type: cell-based; details: Staphylococcus aureus, X400
Procedure: as §1

[10] = tested on: Streptococcus pyogenes C203; assay: standard agar-dilution MIC assay; assay type: cell-based; details: Streptococcus pyogenes, C203
Procedure: as §1

[11] = tested on: Staphylococcus epidermidis EPI1; assay: standard agar-dilution MIC assay; assay type: cell-based; details: Staphylococcus epidermidis, EPI1
Procedure: as §1

[12] = tested on: Staphylococcus aureus X1.1; assay: standard agar-dilution MIC assay; assay type: cell-based; details: Staphylococcus aureus, X1.1
Procedure: as §1

[13] = tested on: Streptococcus Group D X66; assay: standard agar-dilution MIC assay; assay type: cell-based; details: read-out: MIC
Procedure: as §1

[14] = tested on: Pasteurella multocida 40G; assay: broth-dilution microtiter MIC test; assay type: cell-based; details: Pasteurella multocida, 40G
Procedure: as §1

[15] = tested on: Pasteurella multocida 68C; assay: broth-dilution microtiter MIC test; assay type: cell-based; details: Pasteurella multocida, 68C
Procedure: as §1

[16] = tested on: Pasteurella hemolytica 22C; assay: broth-dilution microtiter MIC test; assay type: cell-based; details: Pasteurella, 22C
Procedure: as §1

[17] = tested on: Mycoplasma hyorhinis 29E; assay: broth-dilution microtiter MIC test; assay type: cell-based; details: Mycoplasma, 29E
Procedure: as §1

[18] = tested on: Bordetella bronchiseptica; assay: broth-dilution microtiter MIC test; assay type: cell-based; details: Bordetella bronchiseptica
Procedure: as §1

[19] = tested on: Pasteurella multocida 22A; assay: broth-dilution microtiter MIC test; assay type: cell-based; details: Pasteurella multocida, 22A
Procedure: as §1

[20] = tested on: Mycoplasma gallisepticum 15E; assay: broth-dilution microtiter MIC test; assay type: cell-based; details: Mycoplasmoides gallisepticum, 15E
Procedure: as §1

[21] = tested on: Pasteurella multocida 60A; assay: broth-dilution microtiter MIC test; assay type: cell-based; details: Pasteurella multocida, 60A
Procedure: as §1

[22] = tested on: Pasteurella hemolytica 41D; assay: broth-dilution microtiter MIC test; assay type: cell-based; details: Pasteurella, 41D
Procedure: as §1

[23] = tested on: Staphylococcus aureus 19C; assay: broth-dilution microtiter MIC test; assay type: cell-based; details: Staphylococcus aureus, 19C
Procedure: as §1

[24] = tested on: Mycoplasma gallisepticum 36H; assay: broth-dilution microtiter MIC test; assay type: cell-based; details: Mycoplasmoides gallisepticum, 36H
Procedure: as §1

[25] = tested on: Streptococcus sp. 19F; assay: broth-dilution microtiter MIC test; assay type: cell-based; details: Streptococcus, SP.19F
Procedure: as §1

[26] = tested on: Pasteurella multocida 17E; assay: broth-dilution microtiter MIC test; assay type: cell-based; details: Pasteurella multocida, 17E
Procedure: as §1

[27] = tested on: Mycoplasma synoviae 40A; assay: broth-dilution microtiter MIC test; assay type: cell-based; details: Mycoplasmopsis synoviae, 40A
Procedure: as §1

[28] = tested on: Pasteurella hemolytica 23C; assay: broth-dilution microtiter MIC test; assay type: cell-based; details: Pasteurella, 23C
Procedure: as §1

[29] = tested on: Mycoplasma gallisepticum 29C; assay: broth-dilution microtiter MIC test; assay type: cell-based; details: Mycoplasmoides gallisepticum, 29C
Procedure: as §1

[30] = tested on: Streptococcus pneumoniae Park I; assay: microbe, parasite or virus in culture; assay type: cell-based; details: Streptococcus pneumoniae
Procedure: as §1

[31] = tested on: Staphylococcus aureus S13E; assay: microbe, parasite or virus in culture; assay type: cell-based; details: Staphylococcus aureus, S13E
Procedure: as §1

[32] = tested on: Streptococcus pyogenes C203; assay: protection of mice experimentally infected with S. pyogenes C203; assay type: in vivo; details: mice, mg/kg × 2, doses given 1 and 4 hours postinfection, read-out: ED50
Procedure: The formula 1 compounds have shown in vivo antimicrobial activity against experimentally-induced infections in laboratory animals. When two doses of test compound were administered to mice experimentally infected with S. pyrogenes C203, the activity observed was measured as an ED50 value [effective dose in mg/kg to protect 50% of the test animals: see Warren Wick, et al., J. Bacteriol. 81, 233-235 (1961)].
^a mg/kg × 2; doses given 1 and 4 hours postinfection

[33] = broth-dilution microtiter, read-out: MIC
[34] = broth-dilution microtiter, Avian isolate, read-out: MIC

In the case of `CCC1OC(=O)CC(O)C(C)C(OC2OC(C)C(OC3CC(C)(O)C(O)C(C)O3)C(N(C)C)C2OC(C)=O)C(CC=O)CC(C)C(=O)C=CC(C)=CC1COC1OC(C)C(OC(C)=O)C(OC(=O)COc2ccccc2)C1OC` (stereo not drawn) [Compound 19, 2',4'"-Di-O-acetyl-3'"-O-phenoxyacetyl-macrocin], the MIC ([1]; agar-dilution, read-out: MIC) is reported as > 128 µg/mL, the MIC ([2]; agar-dilution, read-out: MIC) is reported as > 128 µg/mL and the MIC ([3]; agar-dilution, Ampicillin-resistant strain, read-out: MIC) is reported as > 128 µg/mL. For the same compound, the MIC ([4]; agar-dilution, Ampicillin-sensitive strain, read-out: MIC) was > 128 µg/mL, the MIC [5] was 1 µg/mL (≈ 0.893 µM) and the MIC [6] was 1 µg/mL (≈ 0.893 µM). The MIC ([7]; agar-dilution, read-out: MIC) was > 128 µg/mL, the MIC [8] was 2 µg/mL (≈ 1.79 µM) and the MIC [9] was 2 µg/mL (≈ 1.79 µM). It also gave an MIC [10] of 0.5 µg/mL (≈ 0.446 µM), an MIC [11] of 1 µg/mL (≈ 0.893 µM) and an MIC [12] of 1 µg/mL (≈ 0.893 µM). For the same compound, the MIC [13] was 2 µg/mL (≈ 1.79 µM), the MIC [14, 33] was > 50 µg/mL and the MIC [15, 33] was > 50 µg/mL. The MIC [16, 33] was > 50 µg/mL, the MIC [17] was 3.12 µg/mL (≈ 2.78 µM) and the MIC [18, 33] was > 50 µg/mL. For the same compound, the MIC [19, 33] was > 50 µg/mL, the MIC [20] was 25 µg/mL (≈ 22.3 µM) and the MIC [21, 34] was > 50 µg/mL. The MIC [22, 33] was > 50 µg/mL, the MIC [23] was 6.25 µg/mL (≈ 5.58 µM) and the MIC [24] was 50 µg/mL (≈ 44.6 µM). For the same compound, the MIC [25] was 1.56 µg/mL (≈ 1.39 µM), the MIC ([26]; broth-dilution microtiter, Bovine isolate, read-out: MIC) was > 50 µg/mL and the MIC [27] was 0.78 µg/mL (≈ 0.696 µM). The MIC [28, 33] was > 50 µg/mL, the MIC [29] was 0.78 µg/mL (≈ 0.696 µM) and the MIC [30] was 0.25 µg/mL (≈ 0.223 µM). The MIC [31] was 1 µg/mL (≈ 0.893 µM).

`CCC1OC(=O)CC(O)C(C)C(OC2OC(C)C(OC3CC(C)(O)C(O)C(C)O3)C(N(C)C)C2OC(C)=O)C(CC=O)CC(C)C(=O)C=CC(C)=CC1COC1OC(C)C(OC(=O)Cc2ccccc2)C(OC(=O)Cc2ccccc2)C1OC` (stereo not drawn) [Compound 11, 2'-O-Acetyl-3'",4'"-di-O-phenylacetylmacrocin] was tested, and the MIC [1] was > 128 µg/mL, the MIC [2] was > 128 µg/mL and the MIC [3] was > 128 µg/mL. The MIC [4] was > 128 µg/mL, the MIC [5] was 32 µg/mL (≈ 27.1 µM) and the MIC [6] was 16 µg/mL (≈ 13.6 µM). For the same compound, the MIC [7] was > 128 µg/mL, the MIC [8] was 16 µg/mL (≈ 13.6 µM) and the MIC [9] was 64 µg/mL (≈ 54.2 µM). The MIC [10] was 4 µg/mL (≈ 3.39 µM), the MIC [11] was 32 µg/mL (≈ 27.1 µM) and the MIC [12] was 16 µg/mL (≈ 13.6 µM). For the same compound, the MIC [13] was 32 µg/mL (≈ 27.1 µM), the MIC [14] was > 50 µg/mL and the MIC [15] was > 50 µg/mL. The MIC [16] was > 50 µg/mL, the MIC [17] was 12.5 µg/mL (≈ 10.6 µM) and the MIC [18] was > 50 µg/mL. The MIC [19] was > 50 µg/mL, the MIC [20] was 25 µg/mL (≈ 21.2 µM) and the MIC [21] was > 50 µg/mL. For the same compound, the MIC [22] was > 50 µg/mL, the MIC [23] was 50 µg/mL (≈ 42.4 µM) and the MIC [24] was 50 µg/mL (≈ 42.4 µM). For the same compound, the MIC [25] was 3.12 µg/mL (≈ 2.64 µM), the MIC [26] was > 50 µg/mL and the MIC [27] was 12.5 µg/mL (≈ 10.6 µM). The MIC [28] was > 50 µg/mL, the MIC [29] was 3.12 µg/mL (≈ 2.64 µM) and the MIC [30] was 1 µg/mL (≈ 0.847 µM). For the same compound, the MIC [31] was 32 µg/mL (≈ 27.1 µM).

For `CCC1OC(=O)CC(O)C(C)C(OC2OC(C)C(OC3CC(C)(O)C(O)C(C)O3)C(N(C)C)C2OC(C)=O)C(CC=O)CC(C)C(=O)C=CC(C)=CC1COC1OC(C)C(OC(=O)COc2ccccc2)C(O)C1OC` (stereo not drawn) [Compound 13, 2'-O-Acetyl-4'"-O-phenoxyacetyl-macrocin], the MIC ([1]; agar-dilution, read-out: MIC) was > 128 µg/mL, the MIC ([2]; agar-dilution, read-out: MIC) was > 128 µg/mL and the MIC [5] was 2 µg/mL (≈ 1.85 µM). The MIC [6] was 1 µg/mL (≈ 0.927 µM), the MIC ([7]; agar-dilution, read-out: MIC) was > 128 µg/mL and the MIC [8] was 1 µg/mL (≈ 0.927 µM). It also gave an MIC [9] of 2 µg/mL (≈ 1.85 µM), an MIC [10] of 1 µg/mL (≈ 0.927 µM) and an MIC [11] of 1 µg/mL (≈ 0.927 µM). The MIC [12] was 1 µg/mL (≈ 0.927 µM), the MIC [13] was 1 µg/mL (≈ 0.927 µM) and the ED50 ([32]; C203, Oral) was > 100 mg/kg. For the same compound, the ED50 ([32]; C203, sc, Subcutaneous) was 7.2 mg/kg, the MIC [14, 33] was > 50 µg/mL and the MIC [15] was 50 µg/mL (≈ 46.4 µM). The MIC [16, 33] was > 50 µg/mL, the MIC [17] was 3.12 µg/mL (≈ 2.89 µM) and the MIC [18, 33] was > 50 µg/mL. The MIC [19, 33] was > 50 µg/mL, the MIC [20] was 12.5 µg/mL (≈ 11.6 µM) and the MIC [21, 34] was > 50 µg/mL. For the same compound, the MIC [22, 33] was > 50 µg/mL, the MIC [23] was 3.12 µg/mL (≈ 2.89 µM) and the MIC [24] was 12.5 µg/mL (≈ 11.6 µM). It also gave an MIC [25] of 1.56 µg/mL (≈ 1.45 µM), an MIC [26] of 50 µg/mL (≈ 46.4 µM) and an MIC [27] of 0.39 µg/mL (≈ 0.362 µM). The MIC [28, 33] was > 50 µg/mL, the MIC [29] was 0.39 µg/mL (≈ 0.362 µM) and the MIC [30] was 0.25 µg/mL (≈ 0.232 µM). For the same compound, the MIC [31] was 2 µg/mL (≈ 1.85 µM).

— patent US4820694A, “Modifications of 3-O-demethylmycinose in macrocin and lactenocin” (priority 1986, dated 1989)
